Results on two compounds are retold here after patent US9226924B2, “Methods of treating or preventing neuropathic pain” (Toray Industries, Inc., priority 2010, dated 2016).

Series [1] relates to mouse models of neuropathic pain (Seltzer's method, sciatic nerve ligation). Description: von Frey test in mouse Seltzer model of neuropathic pain. Type of series: in vivo. The following applies: oral. On the procedure:
7 to 8 male ICR mice of 5 weeks old were used as one experimental group for evaluation. Mouse models of neuropathic pain were prepared according to Seltzer's method (Seltzer et al., Pain, 1990, vol. 43, p. 205; Malmberg et al., Pain, 1998, vol. 76, p. 215). That is, the sciatic nerve at the femoral region of the right hindlimb of each mouse was exposed under anesthesia, and the sciatic nerve was triply ligated tightly with silk suture of 8-0 (NATSUME SEISAKUSHO) under microscope so that only half thickness of the nerve was trapped in the ligature.
Seven days after the above-described sciatic nerve ligation, using 0.5% methylcellulose as a vehicle, mice of each group received administration of vehicle, administration of a suspension of pregabalin (3 mg/kg) alone, administration of a suspension of Compound 3 (0.3 mg/kg) alone, or administration (combined administration) of a mixed suspension of pregabalin and Compound 3 (3 mg/kg and 0.3 mg/kg, respectively).
Evaluation of neuropathic pain (hereinafter “von Frey test”) was carried out as follows. Mouse models of neuropathic pain were conditioned for at least 1 hour in an acryl cage for measurement (NATSUME SEISAKUSHO) placed on a wire net. Thereafter, using a filament (North Coast Medical. Inc.) which exerted a pressure of 0.16 g, the mice were subjected to mechanical tactile stimulus by applying the filament to the plantar surface of both hindpaws 3 times, each for 3 seconds, with an interval of 3 seconds.
Seven days after sciatic nerve ligation, a von Frey test was carried out before administration of the test compound, 1 hour after administration, 2 hours after administration, and 3 hours after administration. Change in the total scores from before to after administration of the test compound (hereinafter “ΔvF test score”) was calculated by subtracting the total score obtained at each time point after administration of the test compound from the total score obtained before administration of the test compound, which was used as an indicator of analgesic effect.
That is, individual ΔvF test scores of the mice in the group treated with pregabalin alone and the mice in the group treated with Compound 3 alone were sorted in ascending order, respectively, and ΔvF test scores of the two groups at the same rank were added, thereby obtaining a theoretical total value.
The symbol # in the figures indicates a significant difference (###p<0.001) from the group treated with vehicle. […] The symbol * in the figures indicates a significant difference (*p<0.05, **p<0.01) from the theoretical total value.
In the same manner as in Example 1, effects of oral administration of 1, 3, 10 and 30 mg/kg pregabalin alone were evaluated 1 hour after administration in mouse models of neuropathic pain.
(§1) The symbol * in the figure indicates a significant difference (*p<0.025) from the group treated with vehicle.

In another series the test system is male ddY mice. Description: mouse wheel running test (motor inhibitory effect). On the procedure:
8 male ddY mice of 5 weeks old were used as one experimental group for evaluation. The test compound, grouping of mice, vehicle used and administration method were the same as in Example 1.
Mice were placed in a running wheel apparatus (NATSUME SEISAKUSHO) 0.5 hour after administration of the test compound, and the number of revolutions of the running wheel was counted for a period of 1 hour immediately thereafter to evaluate a motor inhibitory effect.
In the same manner as in Example 2, motor inhibitory effects of oral administration of 30 and 100 mg/kg pregabalin were evaluated.
as §1

Take `COc1ccc(-n2nc(C3(O)CCC(O)CC3)cc2-c2ccc(C)cc2)cc1` (stereo not drawn) [Compound 3, 1-(1-(4-methoxyphenyl)-5-(p-tolyl)-1H-pyrazol-3-yl)cyclohex-an-cis-1,4-diol]: the “analgesic effect (ΔvF test score)” value in series [1] (0.3 mg/kg Compound 3 alone, 1 hour, 2 hours and 3 hours after administration, male ICR mice) is given as “an analgesic effect was not observed”. For the same compound, in the series on male ddY mice (0.3 mg/kg Compound 3 alone, oral, 0.5 to 1.5 hours after administration), the “motor inhibitory effect (number of revolutions of running wheel)” value was “No statistically-significant motor inhibitory effect was found”.
For `CC(C)C[C@H](CN)CC(=O)O` [Pregabalin, S-(+)-4-amino-3-(2-methylpropyl) butanoic acid], the “analgesic effect (ΔvF test score)” value was “No analgesic effect was observed” in series [1] (1 mg/kg pregabalin alone, 1 hour after administration (Comparative Example 1)); “No analgesic effect was observed” in series [1] (3 mg/kg pregabalin alone, 1 hour after administration (Comparative Example 1)); “an analgesic effect was not observed” in series [1] (3 mg/kg pregabalin alone, 1 hour, 2 hours and 3 hours after administration, male ICR mice); “a statistically-significant analgesic effect was observed” in series [1] (10 mg/kg pregabalin alone, 1 hour after administration (Comparative Example 1), *p<0.025 vs vehicle); “a statistically-significant analgesic effect was observed” in series [1] (30 mg/kg pregabalin alone, 1 hour after administration (Comparative Example 1), *p<0.025 vs vehicle). In addition, the “analgesic effect relative to combined administration of 3 mg/kg pregabalin and 0.3 mg/kg Compound 3” value in series [1] (30 mg/kg pregabalin alone, 1 hour after administration) is “about the same level”. Also, the “motor inhibitory effect (number of revolutions of running wheel)” value with male ddY mice (3 mg/kg pregabalin alone, oral, 0.5 to 1.5 hours after administration) is “No statistically-significant motor inhibitory effect was found”; in the series on male ddY mice (30 mg/kg pregabalin alone, oral (Comparative Example 2), *p<0.025 vs vehicle) it was “statistically significantly reduced the number of revolutions”; with male ddY mice (100 mg/kg pregabalin alone, oral (Comparative Example 2), *p<0.025 vs vehicle), “statistically significantly reduced the number of revolutions”.
